PubChem BioAssay (NCI)
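All cell lines were grown in 96-well plates and treated with compound for 48 hours. GI50 = concentration required for 50% inhibition of growth. Definition used: TGI = concentration required for complete inhibition of growth.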

Columns and labels:
Test in all cases: DTP human tumour cell line panel, 48 h
[1] = system: SNB-75 CNS
[2] = system: BT-549 breast
[3] = system: LOX IMVI melanoma
[4] = system: CAKI-1 renal
[5] = system: MCF7 breast
[6] = system: M14 melanoma
[7] = system: HS 578T breast
[8] = system: NCI-H460 lung
[9] = system: HOP-92 NSCLC
[10] = system: COLO 205 colon
[11] = system: HCT-116 colon
[12] = system: A498 renal
[13] = system: NCI/ADR-RES ovarian
[14] = system: U251 CNS
[15] = system: A549 NSCLC
[16] = system: MALME-3M melanoma
[17] = system: DU-145 prostate
[18] = system: HCC-2998 colon
[19] = system: SK-OV-3 ovarian
[20] = system: SF-295 CNS
[21] = system: RPMI-8226 leukemia
[22] = system: MOLT-4 leukemia
[23] = system: NCI-H23 lung
[24] = system: NCI-H522 lung
[25] = system: IGROV1 ovarian
[26] = system: HL-60(TB) leukemia
[27] = system: SK-MEL-5 melanoma
[28] = system: SK-MEL-2 melanoma
[29] = system: UACC-62 melanoma
[30] = system: SK-MEL-28 melanoma
[31] = system: PC-3 prostate
[32] = system: TK-10 renal
[33] = system: SW-620 colon
[34] = system: UACC-257 melanoma
[35] = system: CCRF-CEM leukemia
[36] = system: K-562 leukemia
[37] = system: SNB-19 CNS
[38] = system: RXF 393 renal
[39] = system: SF-268 CNS
[40] = system: MDA-MB-468 breast
[41] = system: MDA-MB-231 breast
[42] = system: ACHN renal
[43] = system: MDA-MB-435
[44] = system: T-47D breast
[45] = system: OVCAR-3 ovarian
[46] = system: HOP-62 NSCLC
[47] = system: OVCAR-4 ovarian
[48] = system: UO-31 renal
[49] = system: OVCAR-5 ovarian
[50] = system: OVCAR-8 ovarian
[51] = system: SN12C renal
[52] = system: SF-539 CNS
[53] = system: 786-0 renal
[54] = system: HCT-15 colon
[55] = system: HT29 colon
[56] = system: EKVX NSCLC
[57] = system: SR leukemia
[58] = system: KM12 colon
[59] = system: NCI-H226 lung

CCN1CCN(c2ccc(NC(=O)Nc3ccc4c(c3F)CCN4c3ccnc(C(=O)NC)c3)cc2C(F)(F)F)CC1
GI50 [1]: 585 nM | TGI [1]: 6.84 µM | GI50 [2]: 6.92 µM | TGI [2]: 13.4 µM | GI50 [3]: 5.54 µM | TGI [3]: 10.7 µM | GI50 [4]: 6.56 µM | TGI [4]: 12 µM | GI50 [5]: 5.93 µM | TGI [5]: 13.1 µM | GI50 [6]: 6.8 µM | TGI [6]: 14.5 µM | GI50 [7]: 4.9 µM | TGI [7]: 13.2 µM | GI50 [8]: 6.04 µM | TGI [8]: 12.3 µM | GI50 [9]: 5.87 µM | TGI [9]: 12.5 µM | GI50 [10]: 10.7 µM | TGI [10]: > 37.3 µM | GI50 [11]: 6.98 µM | TGI [11]: 16.5 µM | GI50 [12]: 5.77 µM | TGI [12]: 10.9 µM | GI50 [13]: 6.87 µM | TGI [13]: 16 µM | GI50 [14]: 4.8 µM | TGI [14]: 9.97 µM | GI50 [15]: 6.75 µM | TGI [15]: 13.5 µM | GI50 [16]: 5.49 µM | TGI [16]: 10.5 µM | GI50 [17]: 6.45 µM | TGI [17]: 11.9 µM | GI50 [18]: 6.44 µM | TGI [18]: 12 µM | GI50 [19]: 5.84 µM | TGI [19]: 11.6 µM | GI50 [20]: 3.52 µM | TGI [20]: 8.23 µM | GI50 [21]: 7.73 µM | TGI [21]: 30.9 µM | GI50 [22]: 2090 nM | TGI [22]: 16.3 µM | GI50 [23]: 5.97 µM | TGI [23]: 12 µM | GI50 [24]: 7.1 µM | TGI [24]: 13.8 µM | GI50 [25]: 6.66 µM | TGI [25]: 12.2 µM | GI50 [26]: 6.65 µM | TGI [26]: 15.7 µM | GI50 [27]: 6.1 µM | TGI [27]: 11.3 µM | GI50 [28]: > 37.3 µM | TGI [28]: > 37.3 µM | GI50 [29]: 6.18 µM | TGI [29]: 11.3 µM | GI50 [30]: 5.65 µM | TGI [30]: 10.8 µM | GI50 [31]: 7.39 µM | TGI [31]: 18.9 µM | GI50 [32]: 7.52 µM | TGI [32]: 13.1 µM | GI50 [33]: 5.07 µM | TGI [33]: 11.1 µM | GI50 [34]: 6.27 µM | TGI [34]: 12 µM | GI50 [35]: 6.25 µM | TGI [35]: 24.4 µM | GI50 [36]: 7.43 µM | TGI [36]: > 37.3 µM | GI50 [37]: 5.95 µM | TGI [37]: 11.2 µM | GI50 [38]: 1350 nM | TGI [38]: 6.03 µM | GI50 [39]: 6.13 µM | TGI [39]: 14 µM | GI50 [40]: 6.36 µM | TGI [40]: 12.7 µM | GI50 [41]: 6.26 µM | TGI [41]: 11.5 µM | GI50 [42]: 5.9 µM | TGI [42]: 10.9 µM | GI50 [43]: 5.09 µM | TGI [43]: 10.4 µM | GI50 [44]: > 37.3 µM | TGI [44]: > 37.3 µM | GI50 [45]: 6.02 µM | TGI [45]: 11.6 µM | GI50 [46]: 5.34 µM | TGI [46]: 10.9 µM | GI50 [47]: 6.3 µM | TGI [47]: 13.7 µM | GI50 [48]: 5.43 µM | TGI [48]: 10.3 µM | GI50 [49]: 5.82 µM | TGI [49]: 10.8 µM | GI50 [50]: 7.08 µM | TGI [50]: 15.6 µM | GI50 [51]: 5.88 µM | TGI [51]: 11.2 µM | GI50 [52]: 2350 nM | TGI [52]: 7.24 µM | GI50 [53]: 5.77 µM | TGI [53]: 13.7 µM | GI50 [54]: 5.54 µM | TGI [54]: 12.1 µM | GI50 [55]: 3.06 µM | TGI [55]: 9.53 µM | GI50 [56]: 6.71 µM | TGI [56]: 12.6 µM | GI50 [57]: 5.44 µM | TGI [57]: 18.7 µM | GI50 [58]: 341 nM | TGI [58]: 6.62 µM | GI50 [59]: 6.58 µM | TGI [59]: 14.7 µM
